Source: paper PMC9120478 (Nature Communications, 2022)
Positions count from the first letter of the chain named.

Experiments:
[1] = no reference given; cited from earlier work
TRPV3-I663W = target: T1, TRPV3-I663W (Mus musculus, UniProt Q8K424, I663W); assay: Fura-2 ratiometric Ca2+ uptake, inhibition of 2-APB-evoked response; assay type: cell-based; settings: n = 3
T1 construct: expressed in transfected cells; host or cells: HEK 293 S GnTI- cells (baculovirus transduction)
T1 sequence (Q8K424 1-791 I663W): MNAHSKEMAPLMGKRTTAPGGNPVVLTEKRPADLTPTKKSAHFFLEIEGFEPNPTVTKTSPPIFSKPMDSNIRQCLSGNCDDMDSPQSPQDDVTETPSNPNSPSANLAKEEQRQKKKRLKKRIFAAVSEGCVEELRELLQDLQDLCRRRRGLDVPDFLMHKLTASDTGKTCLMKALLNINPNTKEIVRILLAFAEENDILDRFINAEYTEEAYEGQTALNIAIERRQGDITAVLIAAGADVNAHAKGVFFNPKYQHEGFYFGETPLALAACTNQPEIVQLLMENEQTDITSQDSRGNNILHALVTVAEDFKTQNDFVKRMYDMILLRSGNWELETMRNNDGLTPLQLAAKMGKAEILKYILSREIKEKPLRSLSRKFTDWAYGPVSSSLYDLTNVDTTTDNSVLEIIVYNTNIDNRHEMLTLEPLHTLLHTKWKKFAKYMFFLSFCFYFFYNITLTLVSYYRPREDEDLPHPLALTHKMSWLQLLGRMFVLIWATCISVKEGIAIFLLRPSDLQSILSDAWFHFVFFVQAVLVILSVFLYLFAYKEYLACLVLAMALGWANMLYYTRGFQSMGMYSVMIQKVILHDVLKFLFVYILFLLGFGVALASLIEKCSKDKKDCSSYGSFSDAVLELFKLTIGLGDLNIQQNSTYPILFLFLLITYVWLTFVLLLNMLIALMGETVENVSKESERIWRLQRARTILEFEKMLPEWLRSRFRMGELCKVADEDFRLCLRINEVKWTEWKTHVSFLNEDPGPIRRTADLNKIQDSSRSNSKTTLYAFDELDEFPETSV
From the text: (§1) The portal site in TRPV3 has not been previously shown to bind small-molecule inhibitors. This site, however, was originally proposed to be an entry pathway for local anesthetics to the pore of sodium channels[47]–[49] and found to accommodate cannabidiol in TRPV2, a closely-related representative of the vanilloid subfamily of TRP channels. […] We concluded that the Y594A mutation altered gating properties of TRPV3 and excluded this mutant from further analysis.
(§2) GFP-free C-terminally strep-tagged wild-type TRPV3, TRPV3-Y564A, TRPV3-Y594A, TRPV3-F633A, TRPV3-I663W, and TRPV3-F666A were expressed in HEK 293 S GnTI^− cells as previously described[41],[42],[53]. In short, 48 h after transduction, 1-ml aliquots of cell suspension were collected by centrifugation at 550 g for 5 min using an Eppendorf 5424 centrifuge. The cells were resuspended in the pre-warmed modified HEPES-buffered saline (HBS) containing 118 mM NaCl, 4.8 mM KCl, 1 mM MgCl2, 5 mM D-glucose, and 10 mM HEPES pH 7.4 and 5 μg/ml Fura-2 AM (Thermo Fisher Scientific) and incubated for 45 min at 37 °C. The Fura-2-loaded cells were then centrifuged for 5 min at 550 g, resuspended in the pre-warmed, modified HBS and incubated again for 30 min at 37 °C in the dark. The cells were subsequently pelleted and washed twice in the modified HBS. The washed cell pellets were kept on ice in the dark before taking an aliquot for fluorescence measurements. […] We used the lower CaCl2 concentration than before[42],[28] (2.5 mM) to minimize non-specific effects, which often appeared as a drift in the Fura-2 signal at high Ca^2+ concentration, presumably due to cell death as a result of calcium overload. Fluorescence measurements were conducted using a QuantaMaster 40 spectrofluorometer (Photon Technology International) at room temperature in a quartz cuvette under constant stirring. After 60 s since the beginning, the recording was paused and 2-APB was added. After the addition of 2-APB, the recording was continued for the additional 140 s. Changes in intracellular Ca^2+ were measured by taking the ratio of fluorescence emitted at 510 nm at the excitation wavelength of 340 nm and 380 nm. […] The data were processed using Origin 9.0 (OriginLab) software.

TRPV3-F633A = target: T2, TRPV3-F633A (Mus musculus, UniProt Q8K424, F633A); assay: as above; assay type: cell-based
T2 construct: expressed in transfected cells; host or cells: HEK 293 S GnTI- cells (baculovirus transduction)
T2 sequence (Q8K424 1-791 F633A): T1 sequence (Q8K424 1-791 I663W) with F633A, W663I
From the text: as §1, §2

CCCCOc1ccc(C(=O)CCN2CCCCC2)cc1 [dyclonine, 1-(4-butoxyphenyl)-3-piperidin-1-ylpropan-1-one]
pKa [1]: 8.36
IC50 (TRPV3-I663W; 200 µM 2-APB, read-out: IC50, inhibition of I663W mutant): 31.5 ± 1.6 µM
nHill of inhibition curve, I663W (TRPV3-I663W; logistic fit): 1.63 ± 0.07
IC50 of F633A compared to wild-type channels (TRPV3-F633A): three times smaller
IC50 (TRPV3-F633A; 200 µM 2-APB, n = 6, read-out: IC50, inhibition of F633A mutant): 9.8 ± 0.7 µM
nHill of inhibition curve, F633A (TRPV3-F633A; logistic fit, n = 6): 1.68 ± 0.19
